Results on two molecules are retold here after patent publication US20090142369A1, “Method for preventing skin-cellular injury by using green algae extract and cosmetic composition containing green algae extract” (priority 2007, published 2009).

This assay concerns fibroblasts. Put plainly: protective effects on UV-induced cytotoxicity (fibroblast survival rates). The class given is cell-based, human. Here is the method:
Green algae extracts (20 mg/ml and 10 mg/ml), Vitamin C, and Vitamin E treated fibroblasts are taken as subjects of the present experiment. The fibroblast survival rates are analyzed after 24, 48 and 72 hours of UV exposure and the results are quantified in the histogram.

Take Vitamin E: the “fibroblast survival rate, as % of non-UV-exposed control” value (Vitamin E 25 μM, after 24 hours of UV exposure) is listed as “about 49%”; the “fibroblast survival rate, as % of non-UV-exposed control” value (Vitamin E 25 μM, after 48 hours of UV exposure) is around 27%; the “fibroblast survival rate, as % of non-UV-exposed control” value (Vitamin E 25 μM, after 72 hours of UV exposure) is recorded as around 23%.

Consider `O=C1O[C@H]([C@@H](O)CO)C(O)=C1O` [Vitamin C], for which the “fibroblast survival rate, as % of non-UV-exposed control” value runs as follows: (Vitamin C 0.15 mM, after 24 hours of UV exposure) “about 53%”; (Vitamin C 0.15 mM, after 48 hours of UV exposure) around 29%; (Vitamin C 0.15 mM, after 72 hours of UV exposure) around 22%.
